Test results as given in PMC4875962 (Clinical Pharmacokinetics, 2015).
Read-outs that look alike come from different tables or passages of the source.

How the values were obtained:
[1] = concentrations of 0.2–5 µg/mL; cited from earlier work
[2] = test system: OAT3; details: cited from earlier work
[3] = test system: OATP1B3; details: read-out: IC50, inhibitory effect on OATP1B3; cited from earlier work
[4] = test system: OAT1; details: read-out: IC50, inhibitory effect on OAT1; cited from earlier work
[5] = test system: OAT3; details: read-out: IC50, inhibitory effect on OAT3; cited from earlier work
[6] = test system: OCT1; details: read-out: IC50, inhibitory effect on OCT1; cited from earlier work
[7] = test system: thrombin generation and platelet activation; details: postdose; cited from earlier work
[8] = cited from earlier work
[9] = cited from earlier work; remark: listed apart in the source
[10] = In vitro plasma protein binding
[11] = Mild impairment: CLCR ≥50–≤80 mL/min
[12] = Moderate impairment: CLCR ≥30–<50 mL/min
[13] = Severe impairment: CLCR <30 mL/min

Structure (SMILES): CN1CCc2nc(C(=O)N[C@@H]3C[C@@H](C(=O)N(C)C)CC[C@@H]3NC(=O)C(=O)Nc3ccc(Cl)cn3)sc2C1 [edoxaban]
- in vitro total plasma protein binding [1]: about 55%
- substrate of OAT3 [2]: is not a substrate
- IC50 [3]: ≥ 50 µM
- IC50 [4]: ≥ 100 µM
- IC50 [5]: ≥ 100 µM
- IC50 [6]: ≥ 100 µM
- time of nadir for shed blood F1+2 and β-thromboglobulin [7]: 1.5 h
- safety assessed by bleeding events versus warfarin [8]: improved safety
- efficacy versus warfarin ([8]; non-valvular AF, deep vein thrombosis and pulmonary embolism): noninferior
- AUC∞ [9, 11]: 636 ± 152 ng·h/mL
- CL/F [9, 11]: 24.8 ± 6.00 L/h
- CLR [9, 11]: 7.68 ± 2.57 L/h
- AUC∞ [9, 12]: 816 ± 209 ng·h/mL
- C max [9, 12]: 115 ± 42.3 ng/mL
- CL/F [9, 12]: 19.4 ± 4.69 L/h
- CLR [9, 12]: 4.30 ± 1.72 L/h
- AUC∞ ([9]; Normal: CLCR >80 mL/min): 453 ± 102 ng·h/mL
- CL/F ([9]; Normal: CLCR >80 mL/min): 34.6 ± 7.32 L/h
- C max [9, 13]: 91.9 ± 32.8 ng/mL
- CL/F [9, 13]: 18.5 ± 4.87 L/h
- CLR [9, 13]: 2.12 ± 0.88 L/h
- higher total exposure vs normal renal function ([9]; mild renal impairment (CLCR ≥50–≤80 mL/min)): 32%
- higher total exposure vs normal renal function ([9]; moderate renal impairment (CLCR ≥30–<50 mL/min)): 74%
- higher total exposure vs normal renal function ([9]; severe renal impairment (CLCR <30 mL/min)): 72%
- fraction unbound [10]: ~0.45
